For 5 molecules, KA results are on record in ChEMBL document CHEMBL1141204, “Carbonic anhydrase activators: X-ray crystal structure of the adduct of human isozyme II with L-histidine as a platform for the design of stronger activators” (Bioorg Med Chem Lett, 2005).

The test addresses Carbonic anhydrase 4 (Homo sapiens) (UniProt P22748). Kind of test: Activation constant against recombinant human CA IV isozyme by the esterase method. Type of test: functional.

Sequence of Carbonic anhydrase 4 (Homo sapiens) (P22748 whole entry): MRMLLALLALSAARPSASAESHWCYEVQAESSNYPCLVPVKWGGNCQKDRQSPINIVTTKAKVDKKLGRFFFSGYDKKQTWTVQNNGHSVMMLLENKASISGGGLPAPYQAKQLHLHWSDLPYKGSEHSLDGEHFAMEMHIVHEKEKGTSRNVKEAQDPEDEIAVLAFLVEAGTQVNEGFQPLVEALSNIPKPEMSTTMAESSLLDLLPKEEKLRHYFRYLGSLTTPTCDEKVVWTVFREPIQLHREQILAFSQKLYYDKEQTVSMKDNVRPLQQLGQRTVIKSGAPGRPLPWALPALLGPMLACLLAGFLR

Take `N[C@@H](Cc1c[nH]cn1)C(=O)O`: the KA amounted to 33 µM.
Regarding `N[C@@H](Cc1ccccc1)C(=O)O`, the KA amounted to 4.6 µM.
Consider `COC(=O)[C@@H](N)Cc1c[nH]cn1`, for which the KA was 23 µM.
Regarding `NCCc1c[nH]cn1`, the KA is 37 µM.
In the case of `NCCC(=O)N[C@@H](Cc1c[nH]cn1)C(=O)O`, the KA was 15 µM.
